{"source": "PubChem BioAssay (NCI)", "assay_in_all_cases": "NCI tumour cell line growth inhibition, 48 h", "key": {"[1]": {"system": "HOP-92 NSCLC"}, "[2]": {"system": "NCI-H23 lung"}, "[3]": {"system": "NCI-H460 lung"}, "[4]": {"system": "RXF 393 renal"}, "[5]": {"system": "SF-268 CNS"}, "[6]": {"system": "SK-MEL-2 melanoma"}, "[7]": {"system": "SK-MEL-28 melanoma"}, "[8]": {"system": "UACC-62 melanoma"}, "[9]": {"system": "SNB-19 CNS"}, "[10]": {"system": "HS 578T breast"}}, "note": "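In this assay, cells in 96-well plates receive the compound at five concentrations for 48 hours. Endpoints are linearly interpolated between the surrounding concentrations. GI50: concentration for 50% inhibition of growth. The concentration for full growth arrest is given as TGI.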"}
{"molecule": "CCN(CC)CCCC(C)Nc1c(Sc2cnc3cc(Cl)ccc3c2NC(C)CCCN(CC)CC)cnc2cc(Cl)ccc12", "note": "(centres undefined)", "values": [{"measurement": "TGI", "setting": "[1]", "value": 4.07, "unit": "µM"}, {"measurement": "TGI", "setting": "[2]", "value": 9.25, "unit": "µM"}, {"measurement": "TGI", "setting": "[3]", "value": 3.23, "unit": "µM"}, {"measurement": "TGI", "setting": "[4]", "value": 3.22, "unit": "µM"}, {"measurement": "TGI", "setting": "[5]", "value": 3.83, "unit": "µM"}, {"measurement": "TGI", "setting": "[6]", "value": 3.3, "unit": "µM"}, {"measurement": "TGI", "setting": "[7]", "value": 3.34, "unit": "µM"}, {"measurement": "TGI", "setting": "[8]", "value": 3.13, "unit": "µM"}]}
{"molecule": "COc1ccc(-c2onc(-c3c(C)cc(C)cc3C)c2C2=NCCN2)cc1", "values": [{"measurement": "TGI", "setting": "[2]", "value": "> 100", "unit": "µM"}, {"measurement": "TGI", "setting": "[3]", "value": "> 100", "unit": "µM"}, {"measurement": "TGI", "setting": "[4]", "value": "> 100", "unit": "µM"}, {"measurement": "TGI", "setting": "[5]", "value": "> 100", "unit": "µM"}, {"measurement": "TGI", "setting": "[6]", "value": "> 100", "unit": "µM"}, {"measurement": "TGI", "setting": "[7]", "value": 48.2, "unit": "µM"}, {"measurement": "TGI", "setting": "[9]", "value": "> 100", "unit": "µM"}, {"measurement": "TGI", "setting": "[8]", "value": "> 100", "unit": "µM"}]}
{"molecule": "O=C(N/C(=C\\c1cc(Cl)ccc1Cl)c1nc2ccc(Cl)cc2[nH]1)c1ccccc1", "values": [{"measurement": "TGI", "setting": "[1]", "value": 24.4, "unit": "µM"}, {"measurement": "TGI", "setting": "[2]", "value": 28.7, "unit": "µM"}, {"measurement": "TGI", "setting": "[3]", "value": 30.5, "unit": "µM"}, {"measurement": "TGI", "setting": "[4]", "value": 29.2, "unit": "µM"}, {"measurement": "TGI", "setting": "[5]", "value": 28.1, "unit": "µM"}, {"measurement": "TGI", "setting": "[6]", "value": 32.4, "unit": "µM"}, {"measurement": "TGI", "setting": "[7]", "value": 32.4, "unit": "µM"}, {"measurement": "TGI", "setting": "[9]", "value": 60.1, "unit": "µM"}, {"measurement": "TGI", "setting": "[8]", "value": 24.8, "unit": "µM"}]}
{"molecule": "O=c1c(O)cccn1CCCN(CCCn1cccc(O)c1=O)CCn1cccc(O)c1=O", "values": [{"measurement": "GI50", "setting": "[1]", "value": 6.1, "unit": "µM"}, {"measurement": "TGI", "setting": "[1]", "value": "> 100", "unit": "µM"}, {"measurement": "GI50", "setting": "[2]", "value": 21.1, "unit": "µM"}, {"measurement": "TGI", "setting": "[2]", "value": "> 100", "unit": "µM"}, {"measurement": "GI50", "setting": "[3]", "value": 2.36, "unit": "µM"}, {"measurement": "TGI", "setting": "[3]", "value": "> 100", "unit": "µM"}, {"measurement": "GI50", "setting": "[4]", "value": 1.86, "unit": "µM"}, {"measurement": "TGI", "setting": "[4]", "value": 9.83, "unit": "µM"}, {"measurement": "GI50", "setting": "[5]", "value": 1.9, "unit": "µM"}, {"measurement": "TGI", "setting": "[5]", "value": "> 100", "unit": "µM"}, {"measurement": "GI50", "setting": "[7]", "value": 2.31, "unit": "µM"}, {"measurement": "TGI", "setting": "[7]", "value": "> 100", "unit": "µM"}, {"measurement": "GI50", "setting": "[9]", "value": 3.78, "unit": "µM"}, {"measurement": "TGI", "setting": "[9]", "value": "> 100", "unit": "µM"}, {"measurement": "GI50", "setting": "[8]", "value": 2.14, "unit": "µM"}, {"measurement": "TGI", "setting": "[8]", "value": 76, "unit": "µM"}]}
{"molecule": "CCN(CC)CCC(CNc1c(C)cnc2cc(Cl)ccc12)c1ccc(Cl)cc1", "note": "(centres undefined)", "values": [{"measurement": "GI50", "setting": "[10]", "value": 12.3, "unit": "µM"}, {"measurement": "TGI", "setting": "[10]", "value": 34.1, "unit": "µM"}, {"measurement": "GI50", "setting": "[2]", "value": 10.3, "unit": "µM"}, {"measurement": "TGI", "setting": "[2]", "value": 24.1, "unit": "µM"}, {"measurement": "GI50", "setting": "[3]", "value": 10, "unit": "µM"}, {"measurement": "TGI", "setting": "[3]", "value": 25.2, "unit": "µM"}, {"measurement": "GI50", "setting": "[4]", "value": 4.39, "unit": "µM"}, {"measurement": "TGI", "setting": "[4]", "value": 18.4, "unit": "µM"}, {"measurement": "GI50", "setting": "[5]", "value": 11.1, "unit": "µM"}, {"measurement": "TGI", "setting": "[5]", "value": 26.1, "unit": "µM"}, {"measurement": "GI50", "setting": "[6]", "value": 3.91, "unit": "µM"}, {"measurement": "TGI", "setting": "[6]", "value": 14.1, "unit": "µM"}, {"measurement": "GI50", "setting": "[9]", "value": 11.4, "unit": "µM"}, {"measurement": "TGI", "setting": "[9]", "value": 26.8, "unit": "µM"}, {"measurement": "GI50", "setting": "[8]", "value": 2.23, "unit": "µM"}, {"measurement": "TGI", "setting": "[8]", "value": 5.16, "unit": "µM"}]}
{"molecule": "CCOC(=O)C1=C(C)N2C(=NC3=C(CCC/C3=C\\c3ccc(Cl)cc3)C2c2ccc(Cl)cc2)S1", "note": "(centres undefined)", "values": [{"measurement": "GI50", "setting": "[10]", "value": 5.33, "unit": "µM"}, {"measurement": "TGI", "setting": "[10]", "value": "> 100", "unit": "µM"}, {"measurement": "GI50", "setting": "[2]", "value": 2.03, "unit": "µM"}, {"measurement": "TGI", "setting": "[2]", "value": 5.26, "unit": "µM"}, {"measurement": "GI50", "setting": "[3]", "value": 4.04, "unit": "µM"}, {"measurement": "TGI", "setting": "[3]", "value": 19.4, "unit": "µM"}, {"measurement": "GI50", "setting": "[4]", "value": 1.88, "unit": "µM"}, {"measurement": "TGI", "setting": "[4]", "value": 3.51, "unit": "µM"}, {"measurement": "GI50", "setting": "[5]", "value": 3.24, "unit": "µM"}, {"measurement": "TGI", "setting": "[5]", "value": 30.4, "unit": "µM"}, {"measurement": "GI50", "setting": "[6]", "value": 19, "unit": "µM"}, {"measurement": "TGI", "setting": "[6]", "value": 62.1, "unit": "µM"}, {"measurement": "GI50", "setting": "[7]", "value": 3.07, "unit": "µM"}, {"measurement": "TGI", "setting": "[7]", "value": 11.4, "unit": "µM"}, {"measurement": "GI50", "setting": "[9]", "value": 3.35, "unit": "µM"}, {"measurement": "TGI", "setting": "[9]", "value": "> 100", "unit": "µM"}, {"measurement": "GI50", "setting": "[8]", "value": 3.25, "unit": "µM"}, {"measurement": "TGI", "setting": "[8]", "value": 16.8, "unit": "µM"}]}
{"molecule": "O=c1c(-c2ccccc2)coc2cc(OC/C(=N/O)c3ccc(F)cc3)ccc12", "values": [{"measurement": "GI50", "setting": "[1]", "value": 18.8, "unit": "µM"}, {"measurement": "TGI", "setting": "[1]", "value": 44.9, "unit": "µM"}, {"measurement": "GI50", "setting": "[2]", "value": 19.3, "unit": "µM"}, {"measurement": "TGI", "setting": "[2]", "value": 42.1, "unit": "µM"}, {"measurement": "GI50", "setting": "[3]", "value": 17.4, "unit": "µM"}, {"measurement": "TGI", "setting": "[3]", "value": 38.2, "unit": "µM"}, {"measurement": "GI50", "setting": "[4]", "value": 17.7, "unit": "µM"}, {"measurement": "TGI", "setting": "[4]", "value": 37.5, "unit": "µM"}, {"measurement": "GI50", "setting": "[5]", "value": 21.5, "unit": "µM"}, {"measurement": "TGI", "setting": "[5]", "value": 50.6, "unit": "µM"}, {"measurement": "GI50", "setting": "[7]", "value": 19.2, "unit": "µM"}, {"measurement": "TGI", "setting": "[7]", "value": "> 100", "unit": "µM"}, {"measurement": "GI50", "setting": "[9]", "value": 18.7, "unit": "µM"}, {"measurement": "TGI", "setting": "[9]", "value": 53.5, "unit": "µM"}, {"measurement": "GI50", "setting": "[8]", "value": 15.8, "unit": "µM"}, {"measurement": "TGI", "setting": "[8]", "value": 31.8, "unit": "µM"}]}
{"molecule": "Nc1n[nH]c2ccc([C@@H]3Nc4cc5[nH]ncc5cc4[C@H]4C5CCC(C5)[C@@H]34)cc12", "note": "(some centres undefined)", "values": [{"measurement": "GI50", "setting": "[1]", "value": 4.59, "unit": "µM"}, {"measurement": "TGI", "setting": "[1]", "value": "> 46.2", "unit": "µM"}, {"measurement": "GI50", "setting": "[10]", "value": 0.369, "unit": "µM"}, {"measurement": "TGI", "setting": "[10]", "value": "> 100", "unit": "µM"}, {"measurement": "GI50", "setting": "[2]", "value": 0.472, "unit": "µM"}, {"measurement": "TGI", "setting": "[2]", "value": "> 71.7", "unit": "µM"}, {"measurement": "GI50", "setting": "[3]", "value": 0.368, "unit": "µM"}, {"measurement": "TGI", "setting": "[3]", "value": "> 41.4", "unit": "µM"}, {"measurement": "GI50", "setting": "[5]", "value": 1.71, "unit": "µM"}, {"measurement": "TGI", "setting": "[5]", "value": "> 100", "unit": "µM"}, {"measurement": "GI50", "setting": "[6]", "value": 0.736, "unit": "µM"}, {"measurement": "TGI", "setting": "[6]", "value": "> 70.5", "unit": "µM"}, {"measurement": "GI50", "setting": "[7]", "value": 10.5, "unit": "µM"}, {"measurement": "TGI", "setting": "[7]", "value": 72.2, "unit": "µM"}, {"measurement": "GI50", "setting": "[9]", "value": 0.436, "unit": "µM"}, {"measurement": "TGI", "setting": "[9]", "value": "> 100", "unit": "µM"}, {"measurement": "GI50", "setting": "[8]", "value": 0.272, "unit": "µM"}, {"measurement": "TGI", "setting": "[8]", "value": 17.4, "unit": "µM"}]}
